From paper PMC9966268, “Genotoxicity of Novel Pyrazolo[4,3-e]tetrazolo[1,5-b][1,2,4]triazine Sulfonamides in Normal and Cancer Cells In Vitro” (International Journal of Molecular Sciences, 2023)

Tests used:
[1] = test system: BxPC-3; experiment: Alkaline comet assay; assay type: cell-based, human; settings: BxPC-3, alkaline, 24 h
Protocol: (§1) The alkaline version of the comet assay was performed according to Singh et al. (1988), with modifications. BxPC-3 and PC-3 cancer cells and normal human fibroblasts (WI-38) were seeded at a density of 1.2 × 10^5/mL onto 12-well plates. […] The experimental design included negative controls (cells treated with DMSO at 0.4% for 24 h at 37 °C). Cells were left for incubation for another 24 h (37 °C; 5% CO2). After exposure, they were transferred to Eppendorf tubes and centrifuged at 1400 rpm for 10 min at 4 °C. Afterward, the supernatant was removed, and the precipitate was diluted in PBS. The next steps were performed as previously described by Kontek and Nowicka.
(§2) After electrophoresis (conditions: 12 V, 300 mA, 25 min), slides were stained with 1 µg/mL of the intercalating agent 4′,6-diamidino-2-phenylindole (DAPI) and coverslipped. DNA damage was assessed with a fluorescence microscope at 360 nm using CellSens (Olympus) software. A total number of approximately 50 cells per slide was chosen for further analysis.
(§3) […] This parameter provides a very clear picture of what the actual appearance of the comets was like. […] The data were presented with an interquartile range and minimal and maximal values using Graphpad Prism 7. Statistical analysis of comet assay results was performed using Statistica software. The Kruskal–Wallis test was used to show a statistically significant difference between groups. Multiple comparisons using mean ranks for all groups module of Statistica software were used. A p-value less than 0.05 was considered statistically significant. In all groups, N > 200.

[2] = test system: PC-3; experiment: Alkaline comet assay; assay type: cell-based, human; settings: PC-3, alkaline, 24 h
Protocol: as §1, §2, §3

[3] = test system: WI-38; experiment: Alkaline comet assay; assay type: cell-based, human; settings: WI-38, alkaline; for mean tail DNA % / median tail DNA %: 24 h
Protocol: as §1, §2, §3

[4] = test system: BxPC-3; experiment: Neutral comet assay; assay type: cell-based, human; settings: 24 h
Protocol: (§4) The majority of the neutral comet assay steps were performed analogously to the alkaline version except for the electrophoresis step. In contrast to the alkaline comet assay, electrophoresis was performed in a buffer comprising 100 mM TRIS and 300 mM sodium acetate with the pH of the solution adjusted to 9.0 by glacial acetic acid, as described previously by Bukowski et al.. Electrophoresis was run at 12 V, 50 mA for 60 min. Cells were washed with distilled water twice, stained with DAPI, and analyzed as described for the alkaline comet assay.
CASP: Comet Assay Software Project Lab (http://casplab.com (accessed on 1 January 2023)) was used to establish the median value of DNA (%) in comet tails. This parameter provides a very clear picture of what the actual appearance of the comets was like. […] The data were presented with an interquartile range and minimal and maximal values using Graphpad Prism 7. Statistical analysis of comet assay results was performed using Statistica software. The Kruskal–Wallis test was used to show a statistically significant difference between groups. Multiple comparisons using mean ranks for all groups module of Statistica software were used. A p-value less than 0.05 was considered statistically significant. In all groups, N > 200.

[5] = test system: PC-3; experiment: Neutral comet assay; assay type: cell-based, human; settings: 24 h
Protocol: as §4, §3

[6] = test system: PC-3; experiment: γH2AX staining; assay type: cell-based, human; settings: PC-3, IC50 concentration, 24 h, foci per cell
Protocol: PC-3 cells were seeded at a density of 3 × 10^4/mL onto round coverslips placed on the bottom of 12-well plates. […] After 24 h, cells were washed once with cold PBS and placed in 4% paraformaldehyde (PHA) in PBS for 10 min. at room temperature. After that, PHA was removed, and cells were permeabilized using 0.1% Triton X-100 for 10 min at 20 °C, followed by incubation in a blocking solution (1 mL/well) containing 2.5% BSA, 1.5% goat serum, and 0.1% Triton X-100 in PBS for 10 min at room temperature. The blocking solution was removed, and coverslips containing cells were incubated with anti-γ-H2AX primary antibodies in blocking solution (anti-gamma-H2AX (phosphor-Ser139) (Abcam, Cambridge, UK; 1:100)) for 1 h at room temperature. Cells were transferred into 12-well plates, washed twice in PBS (5 min each), transferred to plates, and incubated with Goat anti-Mouse IgG Cross-adsorbed antibody, Alexa Fluor 488 (Invitrogen; 1:500 in PBS) for 1 h at room temperature. Cells were washed twice in PBS, followed by incubation with DAPI solution (1 µg/mL) for 10 min at room temperature and two washes in PBS and distilled water. Coverslips were removed using tweezers and placed on microscope slides with a drop of Fluoromount-G mounting medium. The slides were placed flat at room temperature for 24 h and then stored at 4 °C. The slides were analyzed with a fluorescence microscope using CellSens (Olympus) software. A total number of approximately 100 cells per slide was chosen for further analysis. The experiment was performed in duplicate. In BxPC-3 cells, inefficient or non-specific staining was observed despite attempts to optimize the assay. Therefore, we discontinued further work on these cells with the assay.
Images for green γ-H2AX (Alexa Fluor 488) and blue nuclear signals (DAPI) were taken using an Olympus camera. ImageJ software “find maxima” and “count” functions were used to determine the number of γ-H2AX foci in each cell. The “preview point selection” option and “prominence” were chosen based on the accuracy of coverage of γ-H2AX foci. Data were analyzed using GraphPad Prism 7.0 software system (GraphPad Prism Software Inc., USA) and Statistica software. The Kruskal–Wallis test was used to show a statistically significant difference between groups. Multiple comparisons using mean ranks for all groups module of Statistica software were used. A p-value less than 0.05 was considered statistically significant (p < 0.05). In all groups, N > 200.

[7] = test system: BxPC-3; design: method as in PMID 35682571; settings: BxPC-3, 72 h incubation, MTT assay, mean; read-out: IC50 Value ± SD; cited from earlier work
[8] = test system: PC-3; design: method as in PMID 35682571; settings: PC-3, 72 h incubation, MTT assay, mean; read-out: IC50 Value ± SD; cited from earlier work
[9] = test system: WI-38; design: method as in PMID 35682571; settings: WI-38 (head prints WI-28), 72 h incubation, MTT assay, mean; read-out: IC50 Value ± SD; cited from earlier work
[10] = Alamar blue assay; assay type: cell-based; settings: human
Protocol: Alamar blue works as a non-toxic and membrane-permeable redox indicator that is often used to assess the metabolic activity of cells. Over the past 50 years, the alamar blue reagent has been used to measure cell viability and cytotoxicity in a variety of cell types. In this study, alamar blue (BioRAD) was used to assess cell viability before the performance of the neutral comet assay. Nunc microtiter, flat-bottomed 96-well plates were seeded at a density of approximately 1 × 10^4 cells per 100 µL medium per well. Following the given incubation period in controlled conditions (37 °C; 5% CO2), cells were exposed to 11 different concentrations of tested compounds in DMSO (range 0.05–3 µM) in a volume of 100 µL medium per well. The final solvent concentration was <0.5% v/v. The experimental design included negative controls and blanks (wells without cells).
Following a 24 h incubation period, 20 µL of alamar blue was added to each well of the experimental plate. Cells were incubated in a humidified atmosphere for 4 h (37 °C; 5% CO2). The absorbance reading was performed at 570 and 600 nm using a spectrophotometer (microplate reader Power Wave XS BioTek Instruments, Inc., USA). The experiments were performed in triplicate.
The percentage difference between treated and control cells was calculated using the formula provided by the producer (BioRad). (1) Percentage difference between treated and control cells=O2×A1 −O1×A2 /O2×P1−O1×P2×100

[11] = test system: BxPC-3 and PC-3 cancer cell lines; design: method as in PMID 35682571; settings: BxPC-3 and PC-3, 72 h MTT assay; read-out: IC50 (range over cancer cell lines); cited from earlier work
[12] = test system: BxPC-3; experiment: Trypan blue staining; assay type: cell-based, human; settings: BxPC-3, 0.5, 1 and 2 × IC50, 24 h, 37 °C
Protocol: (§5) Trypan blue is a diazo dye that has been used for viability assessment for years. Viable cells with undamaged cellular membranes are resistant to staining and thus allow the discrimination from blue-stained dead cells with disrupted membranes. Cells were seeded at a density of 1.5 × 10^5/mL onto 12-well plates. […] Cells were left for incubation for another 24 h (37 °C; 5% CO2). After exposure, they were transferred to Eppendorf tubes and centrifuged at 1400 rpm for 10 min at 4 °C. Afterward, the supernatant was removed, and the precipitate was diluted in PBS. Cell suspensions were mixed with 0.4% trypan blue solution in a 1:1 ratio. Approximately 300 cells were counted under a light microscope. The experiment was repeated three times. The results were represented as mean viability (%) with SD values.

[13] = test system: PC-3; experiment: Trypan blue staining; assay type: cell-based, human; settings: PC-3, 0.5, 1 and 2 × IC50, 24 h, 37 °C
Protocol: as §5

[14] = test system: WI-38; experiment: Trypan blue staining; assay type: cell-based, human; settings: WI-38, 0.5, 1 and 2 × IC50, 24 h, 37 °C
Protocol: as §5

[15] = BxPC-3, neutral, positive control 20 µM
[16] = PC-3, neutral, positive control 20 µM

| Compound | mean tail DNA % ([1]; IC50 concentration) | median tail DNA % ([1]; IC50 concentration) | mean tail DNA % ([2]; IC50 concentration) | median tail DNA % ([2]; IC50 concentration) | mean tail DNA % ([3]; IC50 concentration) | median tail DNA % ([3]; IC50 concentration) | mean tail DNA % (double-strand breaks) ([4]; human) | median tail DNA % (double-strand breaks) ([4]; human) | mean tail DNA % (double-strand breaks) ([5]; human) | median tail DNA % (double-strand breaks) ([5]; human) | mean number of γH2AX foci [6] | median number of γH2AX foci [6] | IC50 [7] | IC50 [8] | IC50 [9] | viability at 24 h, 3 µM ([10]; PC-3 cells, PC-3, 3 µM) | other results |
| --- | --- | --- | --- | --- | --- | --- | --- | --- | --- | --- | --- | --- | --- | --- | --- | --- | --- |
| Cc1nn(-c2ccc(S(=O)(=O)N3CCOCC3)cc2)c2nn3nnnc3nc12 [MM136] | 14.36% | 8.28% | 12.08% | 1.63% | 0.72% | 0.01% | 5.08% | 4.10% | 8% | 4.6% | 14.71 | 11 | 250 ± 80 nM | 130 ± 10 nM | 480 ± 90 nM | – | – |
| Cc1nn(-c2ccc(S(=O)(=O)N3CCCCC3)cc2)c2nn3nnnc3nc12 [MM139] | 10.85% | 4.74% | 14.22% | 3.35% | 2.97% | 0.085% | 4.86% | 3.72% | 6.07% | 5% | 15.37 | 12 | 330 ± 140 nM | 170 ± 3 nM | 540 nM | 88.4 ± 1.72% | viability at 24 h, 3 µM ([10]; BxPC-3 cells, BxPC-3, 3 µM): 75.3 ± 0.99%; IC50 [11]: 170 to 330 nM |
| Cc1nn(-c2ccc(S(=O)(=O)N3CCN(C)CC3)cc2)c2nn3nnnc3nc12 [MM137] | 12.07% | 3.28% | 11.05% | 2.32% | 1.26% | 0.09% | – | – | 4.45% | 2.82% | 17.52 | 15 | 160 ± 40 nM | 110 ± 7 nM | 270 ± 40 nM | – | – |
| Cc1nn(-c2ccc(S(=O)(=O)NCCN3CCOCC3)cc2)c2nn3nnnc3nc12 [MM134] | 10.9% | 2.5% | 7.37% | 1.03% | 4.19% | 1.5% | 5.11% | 4.21% | 5.72% | 4.09% | 25.8 | 21 | 320 ± 100 nM | 160 ± 20 nM | – | 55.8 ± 5.27% | cell viability [12]: highest reduction in cell viability; cell viability [13]: highest reduction in cell viability; cell viability [14]: highest reduction in cell viability; DNA damage compared with negative and positive control (in words) ([3]; 0.5 × IC50, IC50, 2 × IC50, 24 h, p < 0.05): statistically significant increase in DNA damage |
| bleomycin [reference compound] | – | – | – | – | – | – | – | – | – | – | – | – | – | – | – | – | mean tail DNA % ([1]; positive control 20 µM): 48.3%; median tail DNA % ([1]; positive control 20 µM): 50.8%; mean tail DNA % ([2]; positive control 20 µM): 22.07%; median tail DNA % ([2]; positive control 20 µM): 19.31%; mean tail DNA % ([3]; positive control 20 µM): 32.6%; median tail DNA % ([3]; positive control 20 µM): 29.13%; mean tail DNA % (double-strand breaks) [4, 15]: 11.15%; median tail DNA % (double-strand breaks) [4, 15]: 9.7%; mean tail DNA % (double-strand breaks) [5, 16]: 12.9%; median tail DNA % (double-strand breaks) [5, 16]: 10.4% |
